Patent US10689622B2, “Culture medium for proliferating stem cell, which contains sulfated compound” (AJINOMOTO CO., INC., priority 2012, dated 2020)

Tests used:
[1] = tested on: iPS cell 201B7 strain; assay: iPS cell proliferation system (cell number); format: cell-based, human; conditions: matrigel, Essential-8 medium
Description: The cell proliferation effect of various test compounds was evaluated using artificial pluripotent stem cell (iPS cell). 201B7 strain purchased from iPS Academia Japan, Inc. was grown in a culture container coated with a basal lamina matrix (matrigel manufactured by Nippon Becton Dickinson Company, Ltd., or a fragment containing an active domain of laminin 511 purchased from OSAKA UNIVERSITY) (Becton, Dickinson and Company, Falcon culture petri dish or Falcon culture plate), contained in a feeder-free medium for human ES/iPS cell (ReproCELL Inc, ReproFF2).
In this medium were suspended iPS cells in colony state, and a 2.5- to 3.5-fold diluted amount of the original culture was plated on a 6-well culture plate coated with a basal lamina matrix (Nippon Becton Dickinson Company, Ltd., Falcon culture plate). […] After culturing for 6 to 12 days, the medium was removed, the cells were detached from the culture plate by a trypsin-EDTA (Sigma-Aldrich Ltd.) or TrypLE Select (Invitrogen) treatment and the cell number was measured. The cell number was measured by the method described in “Kaitei Saibou baiyou Nyuumon Note, page 77-83, 2010, YODOSHA CO., LTD.” which is incorporated herein by reference in its entirety.
When the cells were seeded in a dissociation state of the cells (single cell state), a test compound solution after filter sterilization was added to a medium containing Y-27632 (Nacalai Tesque) to a given concentration, and dispensed to a 6 well culture plate. Thereto were plated iPS cells suspended in a medium containing Y-27632 at 100,000 cells/well, and cultured for 6 to 8 days. On the next day of seeding, the medium was exchanged to a medium (without Y-27632) added with the test compound alone. When medium exchange was necessary, the medium was exchanged every 2 or 3 days. […] After culturing for 6 to 8 days, the cell number was measured by a method similar to that mentioned above.
When the evaluation was performed in Essential 8 medium (Invitrogen), which is a different feeder-free medium for iPS cell, iPS cells cultured in a medium obtained by adding human serum albumin (Sigma-Aldrich Co. LLC) to Essential 8 medium were used.

[2] = tested on: Human bone marrow-derived mesenchymal stem cells; assay: Mesenchymal stem cell proliferation system (cell number by DNA quantification); conditions: for effectiveness cells: growth of mesenchymal stem cell, control ratio
Description: Human bone marrow-derived mesenchymal stem cells (Lonza, Human Mesenchymal Stem Cell) cultured in mesenchymal stem cell-dedicated medium (Lonza, MSCGM) or Dulbecco's Modified Eagle Medium (Invitrogen, GIBCO D-MEM) containing inactivated fetal bovine serum (Invitrogen, GIBCO FBS) and penicillin-streptomycin (Sigma-Aldrich Co. LLC.) were cultured in exchanged Lonza serum-free medium. The mesenchymal stem cells thus-acclimated to serum-free culture were suspended in Lonza serum-free medium, and seeded on a 24 well culture plate (Nippon Becton Dickinson Company, Ltd., Falcon culture plate) at 20,000 cells/well or a 6 well culture plate (Nippon Becton Dickinson Company, Ltd., Falcon culture plate) at 50,000 cells/well. Then, a test compound solution after filter sterilization and adjustment to a given concentration was added, and the cells were cultured in an incubator (Thermo Scientific, Forma incubator) under the 5% CO2/37° C. conditions for 7 to 8 days. When the medium exchange was necessary, the medium was exchanged 2 to 3 days after the seeding. In this case, the test compound solution was also added again in the same manner as in seeding. In this case, various compound solutions were added again in the same manner as in seeding. After culturing for 7 to 8 days, the medium was removed and DNA quantification was performed. As a control, the cells were cultured in the same manner in a medium without a test compound and added with phosphate buffered saline.
The medium in the 24 well culture plate was removed, and the cells were washed with phosphate buffered saline. The sodium lauryl sulfate solution (500 μl/well) was added, and the mixture was left standing at 37° C. for 4 hours. The sodium lauryl sulfate solution (1.0 ml) was also added to a cell pellet with a known cell number, and the mixture was left standing at 37° C. for 4 hours. As for the cells in the 24 well culture plate, a part (50 μl) of the lysate was transferred to a 96 well black microplate. The solution used for treating the cell pellets was successively diluted with sodium lauryl sulfate solution and used as solutions for drawing an analytical curve. Also, a part (50 μl) of the solutions for drawing an analytical curve was each transferred to the 96 well black microplate. […] The fluorescence was measured by a microplate reader (excitation wavelength: 355 nm, measurement wavelength: 460 nm) within 5 minutes from the addition. The cell number of the 24 well cell culture plate was calculated from the analytical curve drawn (conversion formula). The evaluation criteria were as follows.

[3] = Measurement of content level of sulfur in test compound (ICP); format: physicochemical; conditions: ICPS-8100, evaluation samples containing 0.01 wt % test compound
How it was run: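 Sulfur content was measured by ICP emission spectrometry on samples containing 0.01 wt % test compound. Values came from a calibration curve of sulfur standards at 0, 1, 10, 30 and 50 ppm.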

[4] = target: T1, bFGF (Homo sapiens, UniProt P09038); assay: Evaluation of bFGF stabilization in Essential 8 medium (ELISA); format: biochemical; conditions: 37° C. for 7 days
T1 construct: purchased Lonza (via TAKARA BIO INC.) Ser. No. 00/190,632
How it was run: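 Test compound in PBS diluted 10-fold into serum-free medium (Essential 8 or ReproFF2), held sealed at 37° C for 7 days; remaining bFGF quantified by ELISA against a standard curve. Controls: PBS without compound diluted into each medium, held 7 days at 37° C or 4° C.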

[5] = target: T1, bFGF; assay: Evaluation of bFGF stabilization in Lonza serum-free medium (ELISA); format: biochemical; conditions: for effectiveness ELISA: effectiveness in ELISA evaluation of mesenchymal stem cells (medium), 4° C. control ratio
How it was run: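 Compound in PBS diluted 10-fold into serum-free medium and held sealed at 37 °C for 7 days (some sets 3 days). Remaining bFGF quantified by human bFGF sandwich ELISA against a standard curve. Controls were compound-free PBS-medium kept at 37 °C or 4 °C for the same period.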

[6] = Lonza serum-free medium, 37° C. for 7 days, test compound 25 ng/ml
[7] = Lonza serum-free medium, 37° C. for 7 days, test compound 250 ng/ml
[8] = Lonza serum-free medium, 37° C. for 7 days, test compound 25 μg/ml
[9] = Lonza serum-free medium, 37° C. for 7 days, test compound 250 μg/ml

T1 sequence (P09038 143-288): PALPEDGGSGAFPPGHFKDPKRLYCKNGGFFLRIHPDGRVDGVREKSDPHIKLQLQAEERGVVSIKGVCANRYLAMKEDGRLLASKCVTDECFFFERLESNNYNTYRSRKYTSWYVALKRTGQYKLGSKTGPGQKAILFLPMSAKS

sulfur content Found (inorganic analysis) [3] [wt %] | concentration showing a suppressive effect on a decrease in the bFGF concentration of the medium [4] | effectiveness ELISA [5] | Substance | number of cells relative to control ([1]; test compound 25 ng/ml) | number of cells relative to control ([1]; test compound 250 ng/ml) | effectiveness cells [2] | bFGF concentration relative to that of 4° C. control (ELISA) ([4]; test compound 250 pg/ml) | bFGF concentration relative to that of 4° C. control (ELISA) ([4]; test compound 25 ng/ml) | bFGF concentration relative to that of 4° C. control (ELISA) ([4]; test compound 250 ng/ml) | bFGF concentration relative to that of 4° C. control (ELISA) ([4]; test compound 25 μg/ml) | bFGF concentration relative to that of 4° C. control (ELISA) ([4]; test compound 250 μg/ml) | bFGF concentration relative to that of 4° C. control (ELISA) [5, 6] | bFGF concentration relative to that of 4° C. control (ELISA) [5, 7] | bFGF concentration relative to that of 4° C. control (ELISA) [5, 8] | bFGF concentration relative to that of 4° C. control (ELISA) [5, 9] | other results
16 | not less than 250 ng/ml | +++ (+++ 70%<) | maltoheptaose SO3Na | ⊚ (not less than 120%: ⊚) | — (100%-50%: —) | ⊚ (⊚ not less than 120%) | x (bFGF concentration was less than 10% relative to that of 4 °C control) | x (bFGF concentration was less than 10% relative to that of 4 °C control) | + (bFGF concentration was not less than 30% and less than 50% relative to that of 4 °C control) | +++ (bFGF concentration was not less than 70% relative to that of 4 °C control) | +++ (bFGF concentration was not less than 70% relative to that of 4 °C control) | + (bFGF concentration was not less than 30% and less than 50% relative to that of 4 °C control) | x (bFGF concentration was less than 10% relative to that of 4 °C control) | +++ (bFGF concentration was not less than 70% relative to that of 4 °C control) | ++ (bFGF concentration was not less than 50% and less than 70% relative to that of 4 °C control) | concentration showing promoted cell proliferation as compared to the control ([2]; mesenchymal stem cells, Lonza serum-free medium): 250 ng/mL; concentration showing a suppressive effect on a decrease in the bFGF concentration in the medium ([5]; Lonza serum-free medium, 37° C. for 3 days): not less than 25 ng/ml; bFGF concentration relative to that of 4° C. control (ELISA) ([5]; Lonza serum-free medium, 37° C. for 3 days, test compound 25 ng/ml): − (bFGF concentration was not less than 10% and less than 30% relative to that of 4 °C control); bFGF concentration relative to that of 4° C. control (ELISA) ([5]; Lonza serum-free medium, 37° C. for 3 days, test compound 250 ng/ml): ++ (bFGF concentration was not less than 50% and less than 70% relative to that of 4 °C control); bFGF concentration relative to that of 4° C. control (ELISA) ([5]; Lonza serum-free medium, 37° C. for 3 days, test compound 25 μg/ml): ++ (bFGF concentration was not less than 50% and less than 70% relative to that of 4 °C control); bFGF concentration relative to that of 4° C. control (ELISA) ([5]; Lonza serum-free medium, 37° C. for 3 days, test compound 250 μg/ml): ++ (bFGF concentration was not less than 50% and less than 70% relative to that of 4 °C control)
13 | not less than 250 ng/ml | +++ (+++ 70%<) | maltotriose SO3Na | ◯ (not less than 100%: ◯) | ◯ (not less than 100%: ◯) | ⊚ (⊚ not less than 120%) | x (bFGF concentration was less than 10% relative to that of 4 °C control) | x (bFGF concentration was less than 10% relative to that of 4 °C control) | − (bFGF concentration was not less than 10% and less than 30% relative to that of 4 °C control) | +++ (bFGF concentration was not less than 70% relative to that of 4 °C control) | +++ (bFGF concentration was not less than 70% relative to that of 4 °C control) | x (bFGF concentration was less than 10% relative to that of 4 °C control) | x (bFGF concentration was less than 10% relative to that of 4 °C control) | + (bFGF concentration was not less than 30% and less than 50% relative to that of 4 °C control) | +++ (bFGF concentration was not less than 70% relative to that of 4 °C control) | –
17 | not less than 2.5 μg/ml | ++ (++ 50%<) | mannitol SO3Na | – | – | ◯ (◯ not leas than 100%) | x (bFGF concentration was less than 10% relative to that of 4 °C control) | x (bFGF concentration was less than 10% relative to that of 4 °C control) | x (bFGF concentration was less than 10% relative to that of 4 °C control) | +++ (bFGF concentration was not less than 70% relative to that of 4 °C control) | +++ (bFGF concentration was not less than 70% relative to that of 4 °C control) | + (bFGF concentration was not less than 30% and less than 50% relative to that of 4 °C control) | − (bFGF concentration was not less than 10% and less than 30% relative to that of 4 °C control) | + (bFGF concentration was not less than 30% and less than 50% relative to that of 4 °C control) | ++ (bFGF concentration was not less than 50% and less than 70% relative to that of 4 °C control) | –
